In the oligonucleotide strings, read from the 5' end, every base follows the letter of its sugar. An asterisk marks phosphorothioate; unmarked linkages are phosphodiester. Other units and linkages are bracketed, terminal groups are in braces. A string of capitals states the bases alone. e = 2'-O-(2-methoxyethyl) (MOE); [5mC] = 5-methylcytosine; d = 2'-deoxy (DNA)
Tests used:
[1] = test system: mouse apolipoprotein B mRNA; test: Inhibition of mouse apolipoprotein B mRNA levels in primary mouse hepatocytes, real-time PCR; assay type: cell-based
Summary of the method: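 Primary CD-1 mouse hepatocytes transfected at 80% confluency with oligonucleotide plus 3.75 μg/mL LIPOFECTIN for 4-7 h, harvested 16-24 h after treatment. ApoB mRNA measured by real-time quantitative PCR against a standard curve of untreated-control mRNA, giving percent inhibition; GAPDH primers/probe also used.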

[2] = Long-term study in lean Cynomolgous monkeys (Example 64): toxicity (steatosis, APTT, histology, kidney); assay type: in vivo, Cynomolgous monkey
Method: (§1) Male and female Cynomologous monkeys are treated with 2, 4 or 12 mg/kg of ISIS 301012 intravenously or 2 or 20 mg/kg subcutaneously at a frequency of every two days for the first week, and every 4 days thereafter, for 1 and 3 month treatment periods. Saline-treated animals serve as controls. Each treatment group includes 2 to 3 animals of each sex.
(§2) At a one month interval and at the 3 month study termination, the animals are sacrificed and evaluated for target expression in liver, lipid levels in serum and indicators of toxicity. Liver samples are procured, RNA is isolated and apolipoprotein B mRNA expression is measured by real-time PCR as described in other examples herein. Serum lipids, including total cholesterol, LDL-cholesterol, HDL-cholesterol and triglycerides, are evaluated by routine clinical analysis using an Olympus Clinical Analyzer (Olympus America Inc., Melville, N.Y.). Ratios of LDL-cholesterol to HDL-cholesterol and total cholesterol to HDL-cholesterol are also calculated. Analyses of serum ALT and AST, inflammatory infiltrates in tissue and basophilic granules in tissue provide an assessment of toxicities related to the treatment. Hepatic steatosis, or accumulation of lipids in the liver, is assessed by routine histological analysis with oil red 0 stain and measurement of liver tissue triglycerides using a Triglyceride GPO Assay (Sigma-Aldrich, St. Louis, Mo.).
Hepatic steatosis, or accumulation of lipids in the liver, was not observed following 4 weeks of treatment with the doses indicated.

[3] = test system: apolipoprotein B mRNA; test: Long-term study in lean Cynomolgous monkeys (Example 64): apolipoprotein B mRNA in liver; assay type: in vivo, Cynomolgous monkey; conditions: for apolipoprotein B expression % change normalized to saline: liver, one month
Method: as §1, §2
The results from the one month interval of the long term treatment are shown in Table 50 and are normalized to saline-treated animals for mRNA and to untreated baseline values for lipid levels. Total cholesterol, LDL-cholesterol, HDL-cholesterol, LDL particle concentration and triglyceride levels in serum were measured by nuclear magnetic resonance spectroscopy by Liposcience (Raleigh, N.C.). Additionally, the concentration of intact oligonucleotide in liver was measured by capillary gel electrophoresis and is presented as micrograms of oligonucleotide per gram of liver tissue. Each result represents the average of data from 4 animals (2 males and 2 females).
In a similar experiment, male and female Cynomolgous monkeys received an intravenous dose of ISIS 301012 at 4 mg/kg, every two days for the first week and every 4 days thereafter. Groups of animals were sacrificed after the first dose and the fourth dose, as well as 11, 15 and 23 days following the fourth and final dose. Liver RNA was isolated and apolipoprotein B mRNA levels were evaluated by real-time PCR as described herein. […] Furthermore, after 4 doses of ISIS 301012 at 4 mg/kg, target mRNA was reduced by approximately 85% and a 50% reduction in target mRNA was sustained for up to 16 days following the cessation of antisense oligonucleotide treatment.

## 147764 (eG*eT*e[5mC]*e[5mC]*e[5mC]*dT*dG*dA*dA*dG*dA*dT*dG*dT*d[5mC]*eA*eA*eT*eG*e[5mC]) [compound 147764]
[1]; Table 3, 150 nM, averages from two experiments
  % INHIB: 97%
[1]; Table 4, 50 nM
  Percent Inhibition 50 nM: 48%
[1]; Table 4, 150 nM
  Percent Inhibition 150 nM: 84%
[1]; Table 4, 300 nM
  Percent Inhibition 300 nM: 90%

## ISIS 301012: SEQ ID NO: 247, antisense oligonucleotide targeted to human apolipoprotein B (antisense GCCTCAGTCTGCTTCGCACC; chemistry not given here)
[2]
  functional changes in kidney: No functional changes
[2]; 4 weeks of treatment
  Hepatic steatosis: not observed
[2]; 12 and 20 mg/kg
  dose-related histological findings: basophilic granules in the liver and kidney
[2]; 12 and 20 mg/kg, during the first 4 hours
  transient increase in activated partial thromboplastin time (APTT): 1.2-1.3 fold
[3]; Cynomolgous monkeys, after 4 doses at 4 mg/kg i.v.
  reduction in target mRNA in liver: approximately 85%
[3]; Cynomolgous monkeys, single intravenous dose of 4 mg/kg
  reduction in apolipoprotein B mRNA expression in liver: 40%
[3]; Cynomolgous monkeys, up to 16 days following cessation of treatment (4 doses, 4 mg/kg)
  reduction in target mRNA in liver sustained after cessation: 50%
[3]; lean Cynomolgous monkeys, one month interval
  apolipoprotein B expression: inhibits apolipoprotein B expression in a dose-dependent manner
[3]; lean Cynomolgous monkeys, intravenous 2 mg/kg
  apolipoprotein B expression % change normalized to saline: −45%
[3]; lean Cynomolgous monkeys, intravenous 4 mg/kg
  apolipoprotein B expression % change normalized to saline: −76%
[3]; lean Cynomolgous monkeys, intravenous 12 mg/kg
  apolipoprotein B expression % change normalized to saline: −96%
[3]; lean Cynomolgous monkeys, subcutaneous 20 mg/kg
  apolipoprotein B expression % change normalized to saline: −94%
